What was measured:
[1] = test system: AR4295 MetiS: meticillin-sensitive strain; experiment: Growth of S. aureus strains streaked on CHROMagar Staph aureus medium with antibiotic: meticillin-sensitive strain; type: cell-based, Staphylococcus aureus; parameters: key: + = colony growth; − = no growth; * = microcolonies; conditions: streaked dishes, 37° C. for 24 hours
Source text: (§1) Study of the growth of meticillin-resistant S. aureus strains on CHROMagar Staph aureus medium (available from the company CHROMagar, 4, Place du 18 Juin 1940, 75006 Paris France): • AR4295 MetiS: meticillin-sensitive strain • AR4297 MetiR: (homogeneous) meticillin-resistant strain • MRhet: (heterogeneous) meticillin-resistant strain • Z252: meticillin-resistant strain, homogeneous, low level of resistance
(§2) Petri dishes are inoculated with bacterial cultures by streaking the dishes, in order to observe the growth of isolated bacteria, after incubation at 37° C. for 24 hours.
(§3) The bacteria that grow give purple colonies on the culture medium, confirming that the microorganisms are Staphylococcus aureus.

[2] = test system: MRhet: (heterogeneous) meticillin-resistant strain; experiment: Growth of S. aureus strains streaked on CHROMagar Staph aureus medium with antibiotic: heterogeneous meticillin-resistant strain; type: cell-based, Staphylococcus aureus; parameters: key: + = colony growth; − = no growth; * = microcolonies; conditions: streaked dishes, 37° C. for 24 hours
Source text: as §1, §2, §3

[3] = test system: Z252: meticillin-resistant strain, homogeneous, low level of resistance; experiment: Growth of S. aureus strains streaked on CHROMagar Staph aureus medium with antibiotic: low-level resistant strain; type: cell-based, Staphylococcus aureus; parameters: key: + = colony growth; − = no growth; * = microcolonies; conditions: streaked dishes, 37° C. for 24 hours
Source text: as §1, §2, §3

[4] = test system: AR4297 MetiR: (homogeneous) meticillin-resistant strain; experiment: Growth of S. aureus strains streaked on CHROMagar Staph aureus medium with antibiotic: homogeneous meticillin-resistant strain; type: cell-based, Staphylococcus aureus; parameters: key: + = colony growth; − = no growth; * = microcolonies; conditions: CHROMagar Staph aureus + Cefoxitin 5 mg/l; streaked dishes, 37° C. for 24 hours
Source text: as §1, §2, §3

[5] = Stability of the detection medium prepared with the antibiotic; type: physicochemical; conditions: added when the medium is at 48° C.
Protocol: For example, a stability of at least 2 months has been observed for a medium in accordance with the invention prepared with cefoxitin at a concentration of 5 mg/l, added to the medium when the latter is at a temperature of 48° C. The stability of the medium in accordance with the invention has been brought to at least 5 months when said medium has been prepared with cefmetazole at a concentration of 2.5 mg/l, added to the medium when the latter is at a temperature of 48° C.
The expression “stability of the medium” is intended to denote the ability of the medium in accordance with the invention to allow the selective detection of meticillin-resistant microorganisms, in particular staphylococcus aureus, for a given period of time, with the same reliability throughout the period of time.

[6] = Conservation of antibiotic activity on heating; type: physicochemical; conditions: temperature of greater than 100° C.; resistance verified by the inventors at 121° C.
Protocol: (its resistance having even been verified by the inventors at 121° C.).

[7] = CHROMagar Staph aureus + oxacillin 6 mg/ml
[8] = CHROMagar Staph aureus + Cefoxitin 5 mg/l

Cc1onc(-c2ccccc2)c1C(=O)N[C@@H]1C(=O)N2[C@@H]1SC(C)(C)[C@@H]2C(=O)O [oxacillin]
colony growth, AR4295 MetiS [1, 7]: − | colony growth, MRhet [2, 7]: − | colony growth, Z252 [3, 7]: −

CO[C@@]1(NC(=O)Cc2cccs2)C(=O)N2C(C(=O)O)=C(COC(N)=O)CS[C@@H]21 [Cefoxitin, cefoxitin]
colony growth, AR4295 MetiS [1, 8]: − | colony growth, AR4297 MetiR [4]: + | colony growth, MRhet [2, 8]: + | colony growth, Z252 [3, 8]: + | stability of the medium ([5]; medium prepared with cefoxitin at 5 mg/l): at least 2 months

CO[C@@]1(NC(=O)CSC(F)F)C(=O)N2C(C(=O)O)=C(CSc3nnnn3CCO)CO[C@@H]21 [flomoxef]
ability to conserve antibiotic activity on heating [6]: conserve its antibiotic activity

CO[C@@]1(NC(=O)CSCC#N)C(=O)N2C(C(=O)O)=C(CSc3nnnn3C)CS[C@@H]21 [cefmetazole]
stability of the medium ([5]; medium prepared with cefmetazole at 2.5 mg/l): at least 5 months
